The series has as its system Human umbilical cord endothelial cells. Type of series: cell-based. The text has this: The toxicity of each component is checked on Human cell lines (Human umbilical cord endothelial cells).

`CCCCCCCCCCCCC/C=C/[C@@H](O)[C@@H](N)COP(=O)(O)O` [Sphingosine-1-phosphate, Sphingosine-1-Phosphate]: for the setting “Human umbilical cord endothelial cells”, the toxicity result is given as “not toxic”. For the same molecule, the proliferation of cells entry (at as low as 1 μM concentration) is reported as “proliferative”.
As to `O=C(O)c1cc(O)c(O)c(O)c1` [Gallic acid], the human cell growth (treatment with as much as 250 μg/mL) is on record as 100%.
